Assays:
[1] = test system: catalepsy in rats; settings: cited from earlier work
[2] = test system: amphetamine induced hyperactivity; settings: rat, in vivo; cited from earlier work
[3] = test system: PCP induced hyperactivity in rats; settings: cited from earlier work
[4] = target: T1, PDE10A enzyme (Homo sapiens, UniProt Q9Y233); experiment: PDE10A inhibition assay, SPA; assay type: biochemical; settings: column head 2,1334003; unit inferred, nM
T1 construct: made in house; host or cells: E. coli BL21(DE3)
T1 sequence (Q9Y233 716-1055): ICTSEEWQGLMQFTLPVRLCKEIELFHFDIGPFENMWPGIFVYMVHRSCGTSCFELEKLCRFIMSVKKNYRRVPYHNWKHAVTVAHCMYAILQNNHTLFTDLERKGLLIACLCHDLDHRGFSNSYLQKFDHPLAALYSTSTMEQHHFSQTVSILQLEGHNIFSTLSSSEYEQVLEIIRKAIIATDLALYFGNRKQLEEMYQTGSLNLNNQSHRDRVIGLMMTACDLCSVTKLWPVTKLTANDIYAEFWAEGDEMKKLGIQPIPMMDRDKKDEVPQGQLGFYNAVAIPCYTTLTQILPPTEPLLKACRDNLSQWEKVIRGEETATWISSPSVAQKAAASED
Experimental: Active PDE10A enzyme is prepared in a number of ways for use in PDE assays (Loughney, K. et al. Gene 1999, 234, 109-117; Fujishige, K. et al. Eur J Biochem. 1999, 266, 1118-1127 and Soderling, S. et al. Proc. Natl. Acad. Sci. 1999, 96, 7071-7076). PDE10A can be expressed as full-length proteins or as truncated proteins, as long as they express the catalytic domain. PDE10A can be prepared in different cell types, for example insect cells or E. coli. An example of a method to obtain catalytically active PDE10A is as follows: The catalytic domain of human PDE10A (amino acids 440-779 from the sequence with accession number NP 006652) is amplified from total human brain total RNA by standard RT-PCR and is cloned into the BamH1 and Xho1 sites of the pET28a vector (Novagen). Expression in coli is performed according to standard protocols. Briefly, the expression plasmids are transformed into the BL21(DE3) E. coli strain, and 50 mL cultures inoculated with the cells allowed to grow to an OD600 of 0.4-0.6 before protein expression is induced with 0.5 mM IPTG. Following induction, the cells are incubated overnight at room temperature, after which the cells are collected by centrifugation. Cells expressing PDE10A are resuspended in 12 mL (50 mM TRIS-HCl-pH8.0, 1 mM MgCl2 and protease inhibitors). The cells are lysed by sonication, and after all cells are lysed, TritonX100 is added according to Novagen protocols.
PDE10A and Pde3A assays can for example be performed as follows: PDE10A and Pde3A assays are performed in 60 uL samples containing a fixed amount of the relevant PDE enzyme (sufficient to convert 20-25% of the cyclic nucleotide substrate), a buffer (50 mM HEPES7.6; 10 mM MgCl2; 0.02% Tween20), 0.1 mg/ml BSA, 225 pCi of ^3H-labelled cyclic nucleotide substrate, tritium labeled cAMP to a final concentration of 5 nM and varying amounts of inhibitors. Reactions are initiated by addition of the cyclic nucleotide substrate, and reactions are allowed to proceed for one hr at room temperature before being terminated through mixing with 15 uL 8 mg/mL yttrium silicate SPA beads (Amersham). The beads are allowed to settle for one hr in the dark before the plates are counted in a Wallac 1450 Microbeta counter. The measured signal can be converted to activity relative to an uninhibited control (100%) and IC50 values can be calculated using the Xlfit extension to EXCEL.

Row | Compound | IC50 [4] [nM] | further results
1 | COc1ccc(Cc2nccc3cc(OC)c(OC)cc23)cc1OC [Papaverin] | – | catalepsy on its own ([1]; alone): did not cause catalepsy on its own; effect on cataleptic effect of haloperidol ([1]; with D2 receptor antagonist haloperidol): potentiated the cataleptic effect; reduction of amphetamine induced hyperactivity [2]: insignificant; hyperactivity induced by PCP [3]: reduced hyperactivity
2 | COc1ccc(C2CN(c3ncc(C#N)c4cc(OC)c(OC)cc34)CCN2)cc1 (centres unmarked) [Compound 5, 6,7-Dimethoxy-1-[3-(4-methoxy-phenyl)-piperazin-1-yl]-isoquinoline-4-carbonitrile] | 54 | –
3 | COc1cc(C)c(C2CN(c3ncc(C#N)c4cc(OC)c(OC)cc34)CCN2)c(C)c1 (centres unmarked) [Compound 64, 6,7-Dimethoxy-1-[3-(4-methoxy-2,6-dimethyl-phenyl)-piperazin-1-yl]-isoquinoline-4-carbonitrile] | 2100 | –
4 | COc1cc2c(C#N)cnc(N3CCNC(c4ccc(N(C)C)cc4)C3)c2cc1OC (centres unmarked) [Compound 7, 1-[3-(4-Dimethylamino-phenyl)-piperazin-1-yl]-6,7-dimethoxy-isoquinoline-4-carbonitrile] | 76 | –
5 | COc1cc2c(C#N)cnc(N3CCN[C@H](c4ccccc4)C3)c2cc1OC [Compound 52, 6,7-Dimethoxy-1-(®-3-phenyl-piperazin-1-yl)-isoquinoline-4-carbonitrile] | 210 | –

Reference: patent US7858620B2, “Cyanoisoquinoline” (H. Lundbeck A/S, priority 2007, dated 2010)
